Reference: the supplement of paper PMC10307832

Tests used:
Assay in all cases: relative viability (nuclei count vs DMSO), 5 days (fraction); higher = more cells survive
[1] = tested on: 201T
Outline: (§1)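 Each reported value is a median over duplicate plates. It expresses relative viability: treated-well nuclei count divided by vehicle-well nuclei count. Lung cancer cell lines in 1536-well plates were dosed by pin tool a day after seeding, alone with one drug or with a fixed anchor-drug dose plus five library-drug doses (not always all listed) in √10 steps, and nuclei were counted after 5 days.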

[2] = tested on: BEN
Outline: as §1

[3] = tested on: COR-L 105
Outline: as §1

[4] = tested on: EKVX
Outline: as §1

[5] = tested on: EPLC-272H
Outline: as §1

[6] = tested on: H3255
Outline: as §1

[7] = tested on: HCC-44
Outline: as §1

[8] = tested on: HCC-827
Outline: as §1

[9] = tested on: LCLC-97TM1
Outline: as §1

[10] = tested on: LOU-NH91
Outline: as §1

[11] = tested on: LU99A
Outline: as §1

[12] = tested on: NCI-H1437
Outline: as §1

[13] = tested on: NCI-H1666
Outline: as §1

[14] = tested on: NCI-H1975
Outline: as §1

[15] = tested on: NCI-H2085
Outline: as §1

[16] = tested on: NCI-H2087
Outline: as §1

[17] = tested on: NCI-H2170
Outline: as §1

[18] = tested on: NCI-H2342
Outline: as §1

[19] = tested on: NCI-H647
Outline: as §1

[20] = tested on: NCI-H650
Outline: as §1

[21] = tested on: PC-3 [JPC-3]
Outline: as §1

[22] = tested on: SW 1573
Outline: as §1

`COc1nc(C)cnc1NS(=O)(=O)c1cccnc1-c1ccc(-c2nnco2)cc1` [Zibotentan] + Nc1nc2[nH]cc(CCc3ccc(C(=O)N[C@@H](CCC(=O)O)C(=O)O)cc3)c2c(=O)[nH]1 [Pemetrexed] (partner 0.2 µM) gave a relative viability ([1]; first compound 0.08 µM) of 0.327, a relative viability ([1]; first compound 0.253 µM) of 0.355 and a relative viability ([1]; first compound 0.8 µM) of 0.247. It also gave a relative viability ([1]; first compound 2.53 µM) of 0.323, a relative viability ([2]; first compound 0.08 µM) of 0.781 and a relative viability ([2]; first compound 0.253 µM) of 0.707. It also gave a relative viability ([2]; first compound 0.8 µM) of 0.774, a relative viability ([2]; first compound 2.53 µM) of 0.722 and a relative viability ([3]; first compound 0.08 µM) of 1.08. The relative viability ([3]; first compound 0.253 µM) was 0.87, the relative viability ([3]; first compound 0.8 µM) was 1.21 and the relative viability ([3]; first compound 2.53 µM) was 1.05. It also gave a relative viability ([4]; first compound 0.08 µM) of 0.347, a relative viability ([4]; first compound 0.253 µM) of 0.384 and a relative viability ([4]; first compound 0.8 µM) of 0.372. The relative viability ([4]; first compound 2.53 µM) was 0.463, the relative viability ([5]; first compound 0.253 µM) was 0.319 and the relative viability ([5]; first compound 0.8 µM) was 0.309. It also gave a relative viability ([5]; first compound 2.53 µM) of 0.405, a relative viability ([6]; first compound 0.08 µM) of 0.635 and a relative viability ([6]; first compound 0.253 µM) of 0.549. It also gave a relative viability ([6]; first compound 0.8 µM) of 0.575, a relative viability ([6]; first compound 2.53 µM) of 0.56 and a relative viability ([7]; first compound 0.08 µM) of 0.629. It also gave a relative viability ([7]; first compound 0.253 µM) of 0.657, a relative viability ([7]; first compound 0.8 µM) of 0.589 and a relative viability ([7]; first compound 2.53 µM) of 0.666. For the same molecule, the relative viability ([8]; first compound 0.08 µM) was 0.262, the relative viability ([8]; first compound 0.253 µM) was 0.272 and the relative viability ([8]; first compound 0.8 µM) was 0.241. For the same molecule, the relative viability ([8]; first compound 2.53 µM) was 0.294, the relative viability ([9]; first compound 0.08 µM) was 0.192 and the relative viability ([9]; first compound 0.253 µM) was 0.181. For the same molecule, the relative viability ([9]; first compound 0.8 µM) was 0.154, the relative viability ([9]; first compound 2.53 µM) was 0.175 and the relative viability ([10]; first compound 0.08 µM) was 0.366. For the same molecule, the relative viability ([10]; first compound 0.253 µM) was 0.357, the relative viability ([10]; first compound 0.8 µM) was 0.369 and the relative viability ([10]; first compound 2.53 µM) was 0.408. The relative viability ([11]; first compound 0.08 µM) was 0.169, the relative viability ([11]; first compound 0.253 µM) was 0.177 and the relative viability ([11]; first compound 0.8 µM) was 0.14. The relative viability ([11]; first compound 2.53 µM) was 0.198, the relative viability ([12]; first compound 0.08 µM) was 0.35 and the relative viability ([12]; first compound 0.253 µM) was 0.306. The relative viability ([12]; first compound 0.8 µM) was 0.281, the relative viability ([12]; first compound 2.53 µM) was 0.32 and the relative viability ([13]; first compound 0.08 µM) was 0.842. It also gave a relative viability ([13]; first compound 0.253 µM) of 0.726, a relative viability ([13]; first compound 0.8 µM) of 0.862 and a relative viability ([13]; first compound 2.53 µM) of 0.829. For the same molecule, the relative viability ([14]; first compound 0.08 µM) was 0.308, the relative viability ([14]; first compound 0.253 µM) was 0.281 and the relative viability ([14]; first compound 0.8 µM) was 0.289. For the same molecule, the relative viability ([14]; first compound 2.53 µM) was 0.299, the relative viability ([15]; first compound 0.08 µM) was 0.884 and the relative viability ([15]; first compound 0.253 µM) was 0.852. The relative viability ([15]; first compound 0.8 µM) was 0.892, the relative viability ([15]; first compound 2.53 µM) was 0.918 and the relative viability ([16]; first compound 0.08 µM) was 0.677. It also gave a relative viability ([16]; first compound 0.253 µM) of 0.666, a relative viability ([16]; first compound 0.8 µM) of 0.536 and a relative viability ([16]; first compound 2.53 µM) of 0.746. For the same molecule, the relative viability ([17]; first compound 0.08 µM) was 0.264, the relative viability ([17]; first compound 0.253 µM) was 0.256 and the relative viability ([17]; first compound 0.8 µM) was 0.445. It also gave a relative viability ([17]; first compound 2.53 µM) of 0.248, a relative viability ([18]; first compound 0.08 µM) of 0.769 and a relative viability ([18]; first compound 0.253 µM) of 0.729. The relative viability ([18]; first compound 0.8 µM) was 0.761, the relative viability ([18]; first compound 2.53 µM) was 0.797 and the relative viability ([19]; first compound 0.08 µM) was 0.165. It also gave a relative viability ([19]; first compound 0.253 µM) of 0.171, a relative viability ([19]; first compound 0.8 µM) of 0.181 and a relative viability ([19]; first compound 2.53 µM) of 0.201. For the same molecule, the relative viability ([20]; first compound 0.08 µM) was 0.947, the relative viability ([20]; first compound 0.253 µM) was 0.927 and the relative viability ([20]; first compound 0.8 µM) was 0.905. For the same molecule, the relative viability ([20]; first compound 2.53 µM) was 0.977, the relative viability ([21]; first compound 0.08 µM) was 1.51 and the relative viability ([21]; first compound 0.253 µM) was 0.972. The relative viability ([21]; first compound 0.8 µM) was 1.01, the relative viability ([21]; first compound 2.53 µM) was 1.27 and the relative viability ([22]; first compound 0.08 µM) was 0.872. The relative viability ([22]; first compound 0.8 µM) was 0.783 and the relative viability ([22]; first compound 2.53 µM) was 0.823.
